Laboratory results from ChEMBL document CHEMBL1201862, “PubChem BioAssay data set” (2004).
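In this assay, cells in 96-well plates receive the compound at five concentrations for 48 hours. Endpoints are linearly interpolated between the surrounding concentrations. GI50: concentration for 50% inhibition of growth.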 Calls of active or inactive are those of the source. Rule as the data show it: active = GI50 up to about 1.1 µM and inactive = higher.

Key:
Test in all cases: NCI-60 cell line screen, 48 h
COLO 205 = tested on: COLO 205
M14 = tested on: M14
SN12C = tested on: SN12C
SK-MEL-2 = tested on: SK-MEL-2
U-251 = tested on: U-251
SNB-75 = tested on: SNB-75
786-0 = tested on: 786-0
A549 = tested on: A549
T47D = tested on: T47D
OVCAR-8 = tested on: OVCAR-8
UACC-62 = tested on: UACC-62
SK-MEL-5 = tested on: SK-MEL-5
Malme-3M = tested on: Malme-3M
MDA-MB-435 = tested on: MDA-MB-435
EKVX = tested on: EKVX
SF-268 = tested on: SF-268
HT-29 = tested on: HT-29
SR = tested on: SR
MDA-N = tested on: MDA-N
SK-MEL-28 = tested on: SK-MEL-28
UO-31 = tested on: UO-31
SNB-19 = tested on: SNB-19
TK-10 = tested on: TK-10
K562 = tested on: K562
LOX IMVI = tested on: LOX IMVI
HCT-15 = tested on: HCT-15
A498 = tested on: A498
MOLT-4 = tested on: MOLT-4
MDA-MB-231 = tested on: MDA-MB-231
HCT-116 = tested on: HCT-116
OVCAR-4 = tested on: OVCAR-4
Hs-578T = tested on: Hs-578T
NCI/ADR-RES = tested on: NCI/ADR-RES
NCI-H226 = tested on: NCI-H226
CAKI-1 = tested on: CAKI-1
DU-145 = tested on: DU-145
PC-3 = tested on: PC-3
SF-295 = tested on: SF-295
MCF7 = tested on: MCF7
KM12 = tested on: KM12
HOP-92 = tested on: HOP-92
SK-OV-3 = tested on: SK-OV-3
NCI-H23 = tested on: NCI-H23
OVCAR-5 = tested on: OVCAR-5
ACHN = tested on: ACHN
UACC-257 = tested on: UACC-257
BT-549 = tested on: BT-549
HOP-62 = tested on: HOP-62
NCI-H522 = tested on: NCI-H522
NCI-H460 = tested on: NCI-H460
CCRF-CEM = tested on: CCRF-CEM
IGROV-1 = tested on: IGROV-1
OVCAR-3 = tested on: OVCAR-3
RXF 393 = tested on: RXF 393
RPMI-8226 = tested on: RPMI-8226
SF-539 = tested on: SF-539
HL-60 = tested on: HL-60
SW-620 = tested on: SW-620

SMILES: Brc1ccc2c3c1[C@H]1O[C@H]1c1cccc(c1-3)[C@@H]1O[C@H]21
- GI50 (COLO 205): 19.3 µM (inactive)
- GI50 (M14): 17.2 µM (inactive)
- GI50 (SN12C): 17.6 µM (inactive)
- GI50 (SK-MEL-2): 18.3 µM (inactive)
- GI50 (U-251): 14 µM (inactive)
- GI50 (SNB-75): 13.2 µM (inactive)
- GI50 (786-0): 12.4 µM (inactive)
- GI50 (A549): 22 µM (inactive)
- GI50 (T47D): 10.3 µM (inactive)
- GI50 (OVCAR-8): 15.6 µM (inactive)
- GI50 (UACC-62): 16.8 µM (inactive)
- GI50 (SK-MEL-5): 15 µM (inactive)
- GI50 (Malme-3M): 17.8 µM (inactive)
- GI50 (MDA-MB-435): 15 µM (inactive)
- GI50 (EKVX): 18.6 µM (inactive)
- GI50 (SF-268): 17.7 µM (inactive)
- GI50 (HT-29): 8.11 µM (inactive)
- GI50 (SR): 20.2 µM (inactive)
- GI50 (MDA-N): 16.9 µM (inactive)
- GI50 (SK-MEL-28): 15.9 µM (inactive)
- GI50 (UO-31): 17.3 µM (inactive)
- GI50 (SNB-19): 18 µM (inactive)
- GI50 (TK-10): 17.7 µM (inactive)
- GI50 (K562): 2.65 µM (inactive)
- GI50 (LOX IMVI): 2.82 µM (inactive)
- GI50 (HCT-15): 21.3 µM
- GI50 (A498): 21.2 µM (inactive)
- GI50 (MOLT-4): 3.61 µM (inactive)
- GI50 (MDA-MB-231): 20.6 µM (inactive)
- GI50 (HCT-116): 13.2 µM (inactive)
- GI50 (OVCAR-4): 15.1 µM (inactive)
- GI50 (Hs-578T): 23.1 µM (inactive)
- GI50 (NCI/ADR-RES): 22.2 µM (inactive)
- GI50 (NCI-H226): 24.5 µM (inactive)
- GI50 (CAKI-1): 17.8 µM (inactive)
- GI50 (DU-145): 13 µM (inactive)
- GI50 (PC-3): 16.8 µM (inactive)
- GI50 (SF-295): 15.5 µM (inactive)
- GI50 (MCF7): 17.4 µM (inactive)
- GI50 (KM12): 15.2 µM (inactive)
- GI50 (HOP-92): 20.5 µM (inactive)
- GI50 (SK-OV-3): 19.1 µM (inactive)
- GI50 (NCI-H23): 17.8 µM (inactive)
- GI50 (OVCAR-5): 20.2 µM (inactive)
- GI50 (ACHN): 15.3 µM (inactive)
- GI50 (UACC-257): 14.8 µM (inactive)
- GI50 (BT-549): 16.5 µM (inactive)
- GI50 (HOP-62): 14.8 µM (inactive)
- GI50 (NCI-H522): 10.4 µM (inactive)

SMILES: O=C(c1cccc(F)c1F)N1CCc2c([nH]c3ccccc23)C1c1ccc2c(c1)OCO2 (stereo unspecified)
- GI50 (COLO 205): 3.59 µM (inactive)
- GI50 (M14): 3.85 µM (inactive)
- GI50 (SN12C): 14.3 µM (inactive)
- GI50 (SK-MEL-2): 4.2 µM (inactive)
- GI50 (U-251): 11.1 µM (inactive)
- GI50 (SNB-75): 1.99 µM (inactive)
- GI50 (NCI-H460): 6.56 µM (inactive)
- GI50 (786-0): 22.5 µM (inactive)
- GI50 (CCRF-CEM): 5.83 µM (inactive)
- GI50 (A549): 7.08 µM (inactive)
- GI50 (T47D): 10.6 µM (inactive)
- GI50 (IGROV-1): 16.2 µM (inactive)
- GI50 (OVCAR-8): 31.3 µM (inactive)
- GI50 (UACC-62): 5.24 µM (inactive)
- GI50 (SK-MEL-5): 3.63 µM (inactive)
- GI50 (Malme-3M): 28.4 µM (inactive)
- GI50 (MDA-MB-435): 2.23 µM (inactive)
- GI50 (OVCAR-3): 1.64 µM (inactive)
- GI50 (EKVX): 8.32 µM (inactive)
- GI50 (SF-268): 27.3 µM (inactive)
- GI50 (HT-29): 8.32 µM (inactive)
- GI50 (RXF 393): 4.99 µM (inactive)
- GI50 (SR): 3.61 µM (inactive)
- GI50 (MDA-N): 2.42 µM (inactive)
- GI50 (SK-MEL-28): 32.1 µM (inactive)
- GI50 (UO-31): 10.9 µM (inactive)
- GI50 (RPMI-8226): 8.2 µM (inactive)
- GI50 (SNB-19): 7.76 µM (inactive)
- GI50 (TK-10): 22.5 µM (inactive)
- GI50 (K562): 4.22 µM (inactive)
- GI50 (LOX IMVI): 20.2 µM (inactive)
- GI50 (HCT-15): 3.73 µM
- GI50 (A498): 7.55 µM (inactive)
- GI50 (MOLT-4): 5.24 µM (inactive)
- GI50 (MDA-MB-231): 7.87 µM (inactive)
- GI50 (HCT-116): 8 µM (inactive)
- GI50 (OVCAR-4): 11.1 µM (inactive)
- GI50 (Hs-578T): 23.8 µM (inactive)
- GI50 (NCI/ADR-RES): 5.56 µM (inactive)
- GI50 (SF-539): 4.79 µM (inactive)
- GI50 (CAKI-1): 15.5 µM (inactive)
- GI50 (HL-60): 3.4 µM (inactive)
- GI50 (DU-145): 18.2 µM (inactive)
- GI50 (PC-3): 2.97 µM (inactive)
- GI50 (SW-620): 9.71 µM (inactive)
- GI50 (SF-295): 3.09 µM (inactive)
- GI50 (MCF7): 4.27 µM (inactive)
- GI50 (KM12): 4.92 µM (inactive)
- GI50 (HOP-92): 26.5 µM (inactive)
- GI50 (SK-OV-3): 3.61 µM (inactive)
- GI50 (NCI-H23): 11.7 µM (inactive)
- GI50 (OVCAR-5): 30.1 µM (inactive)
- GI50 (ACHN): 18.8 µM (inactive)
- GI50 (UACC-257): 11.2 µM (inactive)
- GI50 (BT-549): 40.3 µM (inactive)
- GI50 (HOP-62): 0.337 µM (active)
- GI50 (NCI-H522): 7.8 µM (inactive)
